In patent US20240059712A1, “BIFUNCTIONAL COMPOUNDS AND PHARMACEUTICAL USES THEREOF” (priority 2022, published 2024):

Experiments:
[1] = target: T1, KRAS^G12D protein (Homo sapiens, UniProt P01116, G12D); test: Protein degradation study (western blot) in Aspc-1 cells; format: cell-based; conditions: for inhibition at 0.005 µM / inhibition at 0.05 µM / inhibition at 0.001 µM: ASPC1, 24 h, 24 hours, read-out: Rate of degradation; for inhibition at 0.005 µM: Aspc-1 cells treated with 0.005 μM compound; for inhibition at 0.05 µM: Aspc-1 cells treated with 50 nM compound; for DC50: Aspc-1 cells, half-maximum degradation concentration, read-out: DC50 of compounds induced Ras G12D protein degradation; for inhibition at 0.001 µM: Aspc-1 cells treated with 1 nM compound
T1 construct: host or cells: Aspc-1 (AsPC-1) cells
Protocol: Aspc-1 (Cobioer, CBP60546) cells in exponential growth phase were inoculated on a 6-well cell culture plate (Corning, 3516) at density of 1E6/well; and cells in the plate were cultured in 37° C. incubator containing 5%-carbon dioxide. The next day, testing compounds were dissolved in DMSO (Sigma, RNBF5902) for the preparation of a 10-mM concentration stock solution. The stock solution was diluted with complete medium (RPMI-1640 supplemented with 10% fetal bovine serum, 1% penicillin-streptomycin), yielding working solutions of various concentrations. The plate, after the addition of compounds, was placed in a 5% carbon dioxide incubator, and incubated at 37° C. for 24 hours (final DMSO concentration was 0.1%). The plate was then removed from the incubator, and the cells were washed twice with precooled PBS (Gibco, 14190250), followed by addition of 80-μL RIPA lysis buffer (containing protease inhibitor (Invitrogen™, AM2696)) to each well. The adherent cells were scraped off with a cell scraper, and the cell lysate was transferred to a 1.5-mL centrifuge tube followed with a 30-minute incubation on ice. The lysate was then clarified with centrifugation at 14000 rpm for 10 min at 4° C. The supernatant was transferred into a new 1.5-mL centrifuge tube, and protein concentration was measured with BCA protein detection kit (Thermo Fisher, 23225). G12D protein level was assessed by western blot.
A mixture of cell lysate (40 μL) and loading buffer (10 μL, 5×SDS (Beyotime, P0015L)) was denatured in a water-bath at 95° C. for 10 min. The denatured protein sample, at 30 μL/well, was loaded into corresponding well of 4-20% Bis-Tris gel (Kingsley, M00656). Protein samples were initially electrophoresed at 80 V for 30 minutes, followed by 120 V for 40 minutes, until the bromophenol blue strip ran to an appropriate position. After electrophoresis, iBlot2 (Life Technologies, IB21001) was used to transfer the separated samples onto PVDF film. The PVDF membrane was washed with double-distilled water and then blocked in TBST (Thermo Scientific, 28360) buffer containing 5% non-fat milk, for 2 hours. Blocked membrane was rinsed with tris-buffered saline tween-20 (Thermo Scientific, 28360, TBST) three times, 10 minutes each. Membrane was then incubated with 1:1000 diluted KRAS primary antibody (CST, cat #14429S) overnight at 4° C. Membrane was rinsed in a way described previously followed by 1 hour incubation of secondary antibody at room temperature. After washing the film for three times with TBST, ECL color developing solution was applied, and image was captured with Biorad Chemi Doc gel imager. The band gray value was quantified (Image Lab), and protein degradation level was calculated according to the following formula:
Level of RAS protein expression=(RAS-compound/GAPDH)/(RAS-DMSO/GAPDH)
Level of degradation (%)=(1−Rate of RAS protein expression)×100
Symbols of −, +, ++, +++ indicate that the degradation level of Ras protein induced by testing compounds are […], 11 to 30%, 31 to 60% and greater than 60%, respectively.
Half-maximum degradation concentrations (DC50s) of testing compounds were calculated using GraphPad Prism and their values were shown in Table 6. Symbols of […] represent DC50s equal or less than 10 nM, 11-50 nM, 51-100 nM, and 101-200 nM, respectively.

[2] = test system: Aspc-1 cells; test: Cell proliferation study (Cell Titer Glo, 72 hours); format: cell-based; conditions: Homo sapiens, ASPC1, read-out: IC50, inhibitory effect on cellular proliferation
Protocol: Aspc-1 (Cobioer, CBP60546) cells were grown in RPMI 1640 (Gibco, 61870127) supplemented with 10% fetal bovine serum (Gibco, 10099141), 1% penicillin-streptomycin (Gibco, 15070-063). Aspc-1 cells in exponential growth phase were seeded into 96-well plate (Corning, 3599) at density of 4×10^3/well. Cells were cultured overnight at 37° C. with 5% CO2. On the next day, cells were treated with compound at various concentrations for 72 hours in 37° C., 5% CO2 incubator (final DMSO concentration is 0.1%). After treatment, the cell plates were added 100 μL Cell Tier Glo (Promega, G7573) to every well and incubated at RT for 10 minutes. Cell growth status was measured with Cell Tier Glo (Promega, G7573) following manufacturer's directions. The inhibition curve was obtained with GraphPad 7.0 software using four-parameter equation.

T1 sequence (P01116 1-188 isoform P01116-2 G12D): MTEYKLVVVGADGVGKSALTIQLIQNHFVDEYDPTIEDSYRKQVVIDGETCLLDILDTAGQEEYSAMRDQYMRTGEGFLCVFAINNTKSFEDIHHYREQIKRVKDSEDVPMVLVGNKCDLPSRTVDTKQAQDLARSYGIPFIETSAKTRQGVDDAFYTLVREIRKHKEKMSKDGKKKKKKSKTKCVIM

SMILES | inhibition at 0.005 µM [1] | inhibition at 0.05 µM [1] | DC50 [1] | IC50 [2] | inhibition at 0.001 µM [1]
C#Cc1c(F)ccc2cc(O)cc(-c3ncc4c(N5CC6CCC(C5)N6)nc(OCC5(CN6CCC7(CC6)CC(N6CCC(c8ccc9c(N%10CCC(=O)NC%10=O)nn(C)c9c8)CC6)C7)CC5)nc4c3F)c12 [Compound 1a] | > 60% | > 60% | < 10 nM | < 100 nM | –
C#Cc1c(F)ccc2cc(O)cc(-c3ncc4c(N5CC6CCC(C5)N6)nc(OCC5(CN6CCC7(CC6)CC(N6CCC(c8cc9c(cc8F)c(N8CCC(=O)NC8=O)nn9C)CC6)C7)CC5)nc4c3F)c12 [Compound 2a] | > 60% | > 60% | < 10 nM | < 100 nM | –
C#Cc1c(F)ccc2cc(O)cc(-c3ncc4c(N5CC6CCC(C5)N6)nc(OCC5(CN6CCC7(CC6)CC(N6CCC(c8ccc(NC9CCC(=O)NC9=O)cc8F)CC6)C7)CC5)nc4c3F)c12 (stereo not drawn) [Compound 12a] | > 60% | > 60% | < 10 nM | < 100 nM | > 60%
Nc1cc(Cl)c(C(F)(F)F)c(-c2ncc3c(N4CC5CCC(C4)N5)nc(OCC4(CN5CCC6(CC5)CC(N5CCC(c7ccc8c9c(cccc79)C(=O)N8C7CCC(=O)NC7=O)CC5)C6)CC4)nc3c2F)c1 (stereo not drawn) [Compound 13a] | > 60% | > 60% | < 10 nM | < 100 nM | > 60%
C#Cc1c(F)ccc2cccc(-c3ncc4c(N5CC6CCC(C5)N6)nc(OCC5(CN6CCC7(CC6)CC(N6CCC(c8ccc9c%10c(cccc8%10)C(=O)N9C8CCC(=O)NC8=O)CC6)C7)CC5)nc4c3F)c12 (stereo not drawn) [Compound 14a] | > 60% | > 60% | < 10 nM | 101 to 1000 nM | > 60%
C#Cc1c(F)ccc2cccc(-c3ncc4c(N5CC6CCC(C5)N6)nc(OCC5(CN6CCC7(CC6)CC(N6CCC(c8ccc9c(C%10CCC(=O)NC%10=O)nn(C)c9c8)CC6)C7)CC5)nc4c3F)c12 (stereo not drawn) [Compound 16a] | > 60% | > 60% | – | 101 to 1000 nM | –
Cn1nc(C2CCC(=O)NC2=O)c2ccc(C3CCN(C4CC5(CCN(CC6(COc7nc(N8CC9CCC(C8)N9)c8cnc(-c9cc(N)cc(Cl)c9C(F)(F)F)c(F)c8n7)CC6)CC5)C4)CC3)cc21 (stereo not drawn) [Compound 17a] | > 60% | > 60% | < 10 nM | < 100 nM | –
Nc1cc(Cl)c(C(F)(F)F)c(-c2ncc3c(N4CC5CCC(C4)N5)nc(OCC4(CN5CCC6(CC5)CC(N5CCC(c7ccc(NC8CCC(=O)NC8=O)cc7F)CC5)C6)CC4)nc3c2F)c1 (stereo not drawn) [Compound 21a] | 31 to 60% | > 60% | < 10 nM | < 100 nM | –
C#Cc1c(F)ccc2cc(O)cc(-c3ccc4c(N5CC6CCC(C5)N6)nc(OCC5(CN6CCC7(CC6)CC(N6CCC(c8ccc9c(C%10CCC(=O)NC%10=O)nn(C)c9c8)CC6)C7)CC5)nc4c3F)c12 (stereo not drawn) [Compound 23a] | > 60% | > 60% | < 10 nM | < 100 nM | –
C#Cc1c(F)ccc2cc(O)cc(-c3ncc4c(N5CC6CCC(C5)N6)nc(OCC5(CN6CCC7(CCC(C(=O)N8CCC(c9ccc%10c(C%11CCC(=O)NC%11=O)nn(C)c%10c9)CC8)CC7)CC6)CC5)nc4c3F)c12 (stereo not drawn) [Compound 24a] | > 60% | 31 to 60% | < 10 nM | < 100 nM | –
C#Cc1c(F)ccc2cc(O)cc(-c3ncc4c(N5CC6CCC(C5)N6)nc(OCC5(CN6CCC7(CCC(CN8CCC(c9ccc%10c(C%11CCC(=O)NC%11=O)nn(C)c%10c9)CC8)CC7)CC6)CC5)nc4c3F)c12 (stereo not drawn) [Compound 26a] | > 60% | 11 to 30% | < 10 nM | < 100 nM | –
C#Cc1c(F)ccc2cc(O)cc(-c3ncc4c(N5CC6CCC(C5)N6)nc(OCC5(CN6CCC7(CC6)CC(C(=O)N6CCC(c8ccc9c(C%10CCC(=O)NC%10=O)nn(C)c9c8)CC6)C7)CC5)nc4c3F)c12 (stereo not drawn) [Compound 28a] | > 60% | > 60% | < 10 nM | < 100 nM | –
C#Cc1c(F)ccc2cc(O)cc(-c3ncc4c(N5CC6CCC(C5)N6)nc(OCC5(CN6CCC7(CC6)CC(CN6CCC(c8ccc9c(C%10CCC(=O)NC%10=O)nn(C)c9c8)CC6)C7)CC5)nc4c3F)c12 (stereo not drawn) [Compound 29a] | > 60% | 11 to 30% | < 10 nM | < 100 nM | –
C#Cc1c(F)ccc2cc(O)cc(-c3ncc4c(N5CC6CCC(C5)N6)nc(OCC5(CN6CCC(N7CC(CN8CCC(c9ccc%10c(C%11CCC(=O)NC%11=O)nn(C)c%10c9)CC8)C7)CC6)CC5)nc4c3F)c12 (stereo not drawn) [Compound 30a] | > 60% | > 60% | < 10 nM | < 100 nM | –
C#Cc1c(F)ccc2cc(O)cc(-c3ncc4c(N5CC6CCC(C5)N6)nc(OCC5(CN6CC7(CCC(N8CCC(c9ccc%10c(C%11CCC(=O)NC%11=O)nn(C)c%10c9)CC8)CC7)C6)CC5)nc4c3F)c12 (stereo not drawn) [Compound 31a] | > 60% | > 60% | < 10 nM | < 100 nM | –
C#Cc1c(F)ccc2cc(O)cc(-c3ncc4c(N5CC6CCC(C5)N6)nc(OCC5(CN6CC7(CCC(CN8CCC(c9ccc%10c(C%11CCC(=O)NC%11=O)nn(C)c%10c9)CC8)CC7)C6)CC5)nc4c3F)c12 (stereo not drawn) [Compound 32a] | > 60% | 31 to 60% | < 10 nM | < 100 nM | –
C#Cc1c(F)ccc2cc(O)cc(-c3ncc4c(N5CC6CCC(C5)N6)nc(OCC5(CN6CCC7(CCC(N8CCC(c9ccc%10c(C%11CCC(=O)NC%11=O)nn(C)c%10c9)CC8)CC7)CC6)CC5)nc4c3F)c12 (stereo not drawn) [Compound 33a] | > 60% | > 60% | < 10 nM | < 100 nM | –
C#Cc1c(F)ccc2cc(O)cc(-c3ncc4c(N5CC6CCC(C5)N6)nc(OCC5(CN6CCC7(CC6)CC(N6CCC(c8cc9c(cc8F)c(N8CCC(=O)NC8=O)nn9C)C(F)(F)C6)C7)CC5)nc4c3F)c12 (stereo not drawn) [Compound 37a] | – | – | < 10 nM | < 100 nM | –
Cn1nc(N2CCC(=O)NC2=O)c2cc(F)c(C3CCN(C4CC5(CCN(CC6(COc7nc(N8CC9CCC(C8)N9)c8cc(Cl)c(-c9ccc(F)c%10sc(N)c(C#N)c9%10)c(F)c8n7)CC6)CC5)C4)CC3)cc21 [Compound 40a] | > 60% | – | < 10 nM | < 100 nM | –
